Molecular target: Coagulation factor X (Homo sapiens, UniProt P00742)
Experiment: Enzyme Inhibition Assay
Conditions: pH 7.5; 22 °C
Experimental: The enzyme activities were determined kinetically as the initial rate of cleavage of a peptide p-nitroanilide. Km for enzyme and substrate was determined using four substrate dilutions. Enzyme was incubated with test compounds for 10 min; the reaction was then started by the addition of the substrate. […] IC50 values for inhibitors were determined from the dose response curve by fitting the data to the Hill equation. Ki,app values were calculated as the IC50/2, with the IC50 value determined at a substrate concentration equal to Km

Coagulation factor X, sequence (P00742 41-179 limits assumed): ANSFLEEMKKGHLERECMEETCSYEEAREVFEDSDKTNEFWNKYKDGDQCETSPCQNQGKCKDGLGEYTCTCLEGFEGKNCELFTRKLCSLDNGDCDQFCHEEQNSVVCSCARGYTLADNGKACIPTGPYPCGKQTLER
Coagulation factor X, sequence (P00742 235-488 limits assumed): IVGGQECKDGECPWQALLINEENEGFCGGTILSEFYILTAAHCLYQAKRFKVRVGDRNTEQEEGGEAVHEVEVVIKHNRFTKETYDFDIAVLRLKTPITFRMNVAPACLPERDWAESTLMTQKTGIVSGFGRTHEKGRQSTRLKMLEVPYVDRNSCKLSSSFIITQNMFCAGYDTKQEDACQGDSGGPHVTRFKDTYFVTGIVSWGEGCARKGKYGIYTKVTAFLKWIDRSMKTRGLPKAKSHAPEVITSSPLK

Compound | Ki
CN1CCN=C1c1cccc(Oc2nc(Oc3cc(C(=N)N)ccc3O)c(F)c(N3CCCC(C(=O)O)C3)c2F)c1 (stereo not drawn) [1-[2-(5-carbamimidoyl-2-hydroxyphenoxy)-3,5-difluoro-6-[3-(1-methyl-4,5-dihydro-1H-imidazol-2-yl)phenoxy]pyridin-4-yl]piperidine-3-carboxylic acid] | 0.11 nM
[H]/N=C(/C)N1CCC(Oc2ccc3c4ccccc4n(Cc4ccc5ccc(C(=N)N)cc5c4)c3c2)CC1 [ZK-806450] | 1.6 nM
Cc1c(F)c(Oc2cccc(C(=N)N)c2)nc(Oc2cccc(C(=N)N)c2)c1F | 14 nM

— BindingDB's records for doi:10.1107/s0907444999007350 (Berlex, 1999)
